Data on twelve compounds can be found in ChEMBL document CHEMBL1201862, “PubChem BioAssay data set” (2004).

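Each compound was tested at five concentrations against cells in 96-well plates for 48 hours. At the GI50, growth is halved.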 Activity calls are given as the source filed them. Rule as the data show it: active = GI50 up to about 1.1 µM and inactive = higher. A value given as a limit tells only on which side of the number the result lay.

Some test systems named below: OVCAR-3; K562; ACHN; SF-268; IGROV-1; HOP-62; COLO 205; HT-29; OVCAR-5; MDA-N; A549; KM12; UACC-257; RXF 393; SW-620; HCC 2998; TK-10; SF-539.
Common to all, as to test: DTP human tumour cell line panel, 48 h

As to `CC(NC(=O)C1(N)CCCC1)C(=O)O` (stereo unspecified), the GI50 in the test on OVCAR-3, in the test with K562, in the test with ACHN, with SF-268, in the test with IGROV-1 and in the test on HOP-62 was > 100 µM (inactive) throughout. For the same compound, the GI50 in the test with COLO 205, in the test on HT-29, with OVCAR-5, in the test with MDA-N, in the test with A549 and in the test on KM12 was > 100 µM (inactive) throughout. In addition, the GI50 in the test with UACC-257, in the test on RXF 393, in the test on SW-620, with HCC 2998 and in the test on TK-10 was > 100 µM (inactive) throughout.

In the case of `COc1cccc(/C=C/C2=NN(c3cccc(S(=O)(=O)O)c3)C3(C2)SCC(=O)N3c2nc3ccccc3s2)c1` (stereo unspecified), the GI50 is 34.3 µM (inactive) with K562; 51.8 µM (inactive) with ACHN; 33.3 µM (inactive) in the test on SF-268; 36.7 µM (inactive) with IGROV-1; > 100 µM (inactive) in the test with COLO 205; 64.7 µM (inactive) in the test on HT-29. Besides, the GI50 was > 100 µM (inactive) with OVCAR-5; 62.7 µM (inactive) with MDA-N; 60.3 µM (inactive) with A549; 32 µM (inactive) in the test on KM12; 85.7 µM (inactive) in the test with UACC-257; 17.1 µM (inactive) with SF-539. In addition, the GI50 is 54.8 µM (inactive) in the test with RXF 393, 47.9 µM (inactive) in the test with SW-620, 95.1 µM (inactive) in the test with HCC 2998 and 28.8 µM (inactive) with TK-10.

As to `CN(C(=O)Cc1cc(Cl)c(Cl)cc1NC(=O)CN)[C@H]1CCCC[C@@H]1N1CCCC1`, the GI50 in the test with OVCAR-3 is 38.8 µM (inactive); in the test on K562, 24.7 µM (inactive); with ACHN, 79.8 µM (inactive); with SF-268, 77.1 µM (inactive); with IGROV-1, > 100 µM (inactive); in the test with HOP-62, > 100 µM (inactive). The GI50 was 20.7 µM (inactive) in the test on HT-29; > 100 µM (inactive) in the test with OVCAR-5; 15.3 µM (inactive) in the test with MDA-N; 39.1 µM (inactive) in the test on A549; 47.4 µM (inactive) in the test on KM12; 18.6 µM (inactive) with UACC-257. For the same compound, the GI50 in the test on RXF 393 was 68.7 µM (inactive); with SW-620, 62.7 µM (inactive); in the test with HCC 2998, 16.6 µM (inactive); in the test with TK-10 it was 37.9 µM (inactive).

Consider `CN1C=Cc2nccc3cc4c(c1c23)OCO4`, for which the GI50 with OVCAR-3 was 5.53 µM (inactive); with K562, 1.89 µM (inactive); with ACHN, 1.56 µM (inactive); in the test on SF-268 it was 3.06 µM (inactive); in the test on IGROV-1, > 20.7 µM (inactive); in the test on HOP-62 it was 1.82 µM (inactive). Besides, the GI50 is 3.18 µM (inactive) in the test on COLO 205; 2 µM (inactive) with HT-29; 6.61 µM (inactive) in the test with OVCAR-5; 2.27 µM (inactive) in the test with MDA-N; 2.81 µM (inactive) in the test on A549; 2.59 µM (inactive) in the test on KM12. The GI50 with UACC-257 is 2.53 µM (inactive); in the test with RXF 393 it was 0.879 µM (active); with SW-620, 3.64 µM (inactive); in the test with HCC 2998, 4.03 µM (inactive); in the test with TK-10 it was 3.64 µM (inactive).

For `NC(=O)CC1OC(=O)Cc2cc3c(c(O)c21)C(=O)c1c(O)cccc1C3=O` (stereo unspecified), the GI50 with K562 was 39.5 µM (inactive); in the test on ACHN, 41.5 µM (inactive); with IGROV-1, 69.3 µM (inactive); with COLO 205, 61.2 µM (inactive); in the test with HT-29 it was > 100 µM (inactive); with OVCAR-5, > 100 µM (inactive). Besides, the GI50 in the test with MDA-N is > 100 µM (inactive); in the test on A549, > 100 µM (inactive); in the test on UACC-257 it was > 100 µM (inactive); in the test on SF-539, 92.7 µM (inactive); in the test on SW-620, > 100 µM (inactive); in the test with HCC 2998, > 100 µM (inactive). Also, the GI50 in the test with TK-10 was > 100 µM (inactive).

As for `CCOC(=O)C(NC(=O)c1ccccc1)(N1CCN(c2cc3c(cc2F)c(=O)c(C(=O)O)cn3C2CC2)CC1)C(F)(F)F` (stereo unspecified), the GI50 in the test on OVCAR-3 was 23.4 µM (inactive); in the test on K562, 20.2 µM (inactive); in the test on ACHN, 23.9 µM (inactive); in the test with SF-268, 18.1 µM (inactive); in the test on IGROV-1, 30.4 µM (inactive); in the test with HOP-62, 31 µM (inactive). The GI50 is 17.1 µM (inactive) in the test on COLO 205; 20.4 µM (inactive) with OVCAR-5; 21.1 µM (inactive) in the test on MDA-N; 34 µM (inactive) in the test on A549; 16.8 µM (inactive) in the test with KM12; 15.2 µM (inactive) in the test with SF-539. Besides, the GI50 in the test on RXF 393 was 19.5 µM (inactive); in the test with SW-620, 21.5 µM (inactive); with HCC 2998, 22.5 µM (inactive).

Take `C=C(C)[C@]12CC(C)C34OC(/C=C\C=C\CCCCCCCCC)(O[C@@H]1[C@@H]3[C@@H]1O[C@]1(CO)[C@@H](O)[C@]1(O)C(=O)C(C)=C[C@@H]41)O2` (stereo partly specified): the GI50 in the test with OVCAR-3 is 6.41 µM (inactive); in the test with K562, 0.0103 µM (active); in the test with ACHN, 5.61 µM (inactive); in the test with SF-268, 12.8 µM (inactive); in the test with IGROV-1, 14.8 µM (inactive); in the test with COLO 205 it was 0.0001 µM (active). Besides, the GI50 with HT-29 is 2.21 µM (inactive); with OVCAR-5, 17.1 µM (inactive); with MDA-N it was 0.01 µM (active); in the test on A549 it was < 0.012 µM (active); with KM12, 6.97 µM (inactive); in the test on UACC-257, 14.7 µM (inactive). Moreover, the GI50 is 0.01 µM (active) with SF-539, 14.8 µM (inactive) in the test on RXF 393, 0.01 µM (active) in the test on HCC 2998 and 0.000288 µM (active) in the test on TK-10.

With `O=C(/C=C\c1ccccc1)Oc1ccc(/C=C2\CCCCC2=O)cc1`, the GI50 is 72.3 µM (inactive) with OVCAR-3; 37.2 µM (inactive) in the test with ACHN; 25.2 µM (inactive) in the test with SF-268; 37.8 µM (inactive) in the test with IGROV-1; 72.1 µM (inactive) with HOP-62; 19.9 µM (inactive) in the test on COLO 205. Moreover, the GI50 with HT-29 was 17.9 µM (inactive); with OVCAR-5, > 100 µM (inactive); with MDA-N, 33.3 µM (inactive); with A549, 46.6 µM (inactive); in the test on KM12 it was 44 µM (inactive); with UACC-257 it was 16.6 µM (inactive). Besides, the GI50 in the test with SF-539 is 28.7 µM (inactive); with SW-620, 40.3 µM (inactive); with HCC 2998, 47.3 µM (inactive); with TK-10, 15.1 µM (inactive).

`CC1=CC=C2c3ccccc3C=CN2C(=O)C1`: the GI50 is 95.3 µM (inactive) with OVCAR-3; 37.8 µM (inactive) in the test with K562; 62.5 µM (inactive) in the test with ACHN; 60.3 µM (inactive) with SF-268; > 100 µM (inactive) in the test on IGROV-1; > 100 µM (inactive) in the test with HOP-62. Also, the GI50 in the test on COLO 205 is 42.5 µM (inactive); in the test with HT-29, 51.4 µM (inactive); in the test with OVCAR-5, > 100 µM (inactive); in the test with MDA-N it was 37.2 µM (inactive); in the test on A549, 41.3 µM (inactive); in the test on KM12, 36.3 µM (inactive). Further, the GI50 in the test with UACC-257 is 96.6 µM (inactive); in the test with SF-539, 73.8 µM (inactive); in the test with SW-620, 49.8 µM (inactive); in the test on HCC 2998 it was 56.6 µM (inactive); with TK-10, 20.1 µM (inactive).

Consider `Cc1c(N/C=C(\C#N)C(=O)c2ccc(Cl)cc2)c(=O)n(-c2ccccc2)n1C`, for which the GI50 was 72.1 µM (inactive) with OVCAR-3; 97.9 µM (inactive) in the test on K562; 96.8 µM (inactive) with IGROV-1; > 100 µM (inactive) with COLO 205; > 100 µM (inactive) in the test on OVCAR-5; > 100 µM (inactive) in the test on MDA-N. The GI50 was > 100 µM (inactive) in the test with A549; > 100 µM (inactive) with KM12; > 100 µM (inactive) in the test on UACC-257; > 100 µM (inactive) in the test on SF-539; > 100 µM (inactive) in the test on RXF 393; 90.4 µM (inactive) in the test with SW-620. Further, the values for the GI50 in the test on HCC 2998 and in the test on TK-10 were > 100 µM (inactive) and 32.9 µM (inactive), respectively.

`COc1ccc(-c2coc3cc(O)ccc3c2=O)cc1` [FORMONONETIN]: the GI50 with OVCAR-3, in the test on K562, in the test with ACHN, in the test with SF-268, with IGROV-1 and in the test with HOP-62 was > 100 µM (inactive) in each case. The GI50 in the test on COLO 205, in the test with HT-29, in the test on OVCAR-5, in the test on MDA-N, with A549 and in the test on KM12 was > 100 µM (inactive) in each case. Moreover, the GI50 with UACC-257, with SF-539, in the test with SW-620, in the test with HCC 2998 and in the test on TK-10 was > 100 µM (inactive) throughout.

`CN(CC(=O)O)c1ncc2c(n1)CCCC2`: the GI50 with OVCAR-3, in the test on K562, in the test on ACHN, in the test with SF-268, in the test with IGROV-1 and in the test on HOP-62 was > 100 µM (inactive) each time. Further, the GI50 with COLO 205, in the test on HT-29, in the test on OVCAR-5, in the test on MDA-N, in the test with A549 and in the test with KM12 was > 100 µM (inactive) in each case. For the same compound, the GI50 with UACC-257, in the test with SF-539, with RXF 393, in the test with SW-620 and in the test on TK-10 was > 100 µM (inactive) in each case.
